Assay results taken from US20030228263A1, “Propagermanium for treating myeloma bone disease and other bone disorders” (SurroMed, Inc., priority 2002, published 2003).

B1: MIP-1α: CC chemokine macrophage inflammatory protein-1α, used as osteoclast stimulus (protein, UniProt P10147 24-92, looked up)
C-C motif chemokine 3: SLAADTPTACCFSYTSRQIPQNFIADYFETSSQCSKPGVIFLTKRSRQVCADPSEEWVQKYVSDLELSA

Tests used:
macrophages = conditions: mouse, in vivo; cited from earlier work
monocytes = conditions: cited from earlier work
[1] = test system: human bone marrow cells stimulated with MIP-1α; test: Formation of human osteoclasts (23c6-positive multinucleated cells) in long-term marrow cultures; format: cell-based; conditions: for increase in the number of osteoclasts formed over untreated marrow: 200 pg/ml MIP-1α or 10^−8 M 1,25-(OH)2D3 alone, 23c6-positive cells, about three weeks, FIG. 3
Procedure: Human long-term marrow cultures were performed as described in D. E. Hughes et al., “Estrogen promotes apoptosis of murine osteoclasts mediated by TGF-β,” Nature Medicine 2: 1132-1136, 1996, which is incorporated herein by reference. Briefly, human bone marrow nonadherent mononuclear cells from normal volunteers were cultured at 10^6 cells/ml in α-minimum essential medium and 20% horse serum with or without 10^−8 M 1,25-(OH)2D3 (vitamin D), 200 pg/ml MIP-1α, 20 ng/ml anti-human MIP-1α antibody, and varying concentrations of propagermanium. Five wells of each of ten different culture conditions were prepared in a 96-well plate. Each well contained 10^5 cells and the desired combination of reagents. Half of the culture medium was changed weekly. After approximately three weeks, the cultures were harvested and stained with the 23c6 monoclonal antibody, which identifies the osteoclast vitronectin receptor, and the 23c6-positive multinucleated cells counted. The 23c6 assay is more specific than the TRAP assay (used in Example 1 for mouse osteoclasts) for human osteoclasts.
Results are shown in FIG. 3, a plot of fold increase in osteoclasts over the number of osteoclasts formed in untreated marrow for each set of wells. Well conditions are indicated below the bars. Results are reported as the mean±S.E. for five replicate samples and were compared by Student's t test.

[2] = test system: mouse bone marrow cells stimulated with MIP-1α; test: Formation of mouse osteoclasts (TRAP staining) in bone marrow cultures; format: cell-based; conditions: 1 μg/ml propagermanium, two different concentrations of MIP-1α, with 10^−11 M vitamin D, FIG. 2
Procedure: Bone marrow cells (10^6 cells/culture) from C57B1 mice were isolated and cultured for osteoclast-like multinucleated cell formation in the presence or absence of 1, 10, or 100 ng/ml MIP-1α, 10^−11 M 1,25-(OH)2D3 (vitamin D), and varying concentrations of anti-human MIP-1α antibody (20 or 100 ng/ml), anti-CCR1 receptor antibody (20 or 100 ng/ml), anti-CCR5 receptor antibody (20 or 100 ng/ml), and 1 μg/ml propagermanium. Twelve different culture compositions were each prepared in four wells of a 48-well plate. After approximately six or seven days, the cultures were stained for the enzyme tartrate-resistant acid phosphatase (TRAP), an enzyme secreted into the circulation by osteoclasts during bone resorption, using an acid phosphatase staining kit (Sigma). TRAP-positive multinucleated cells containing three or more nuclei (assumed to be osteoclasts) were counted with an inverted microscope. The readout can be either the total amount of TRAP (TRAP activity) or the number of osteoclasts.

| Molecule | recruitment of macrophages into the liver (macrophages) | chemotactic response of monocytes to the CC chemokine MCP-1 (monocytes) | direct interaction with the chemokine receptor CCR2 (monocytes) | number of osteoclasts formed in response to MIP-1α stimulation ([1]; 200 pg/ml MIP-1α, varying concentrations of propagermanium) | effect on osteoclast formation in response to vitamin D stimulation ([1]; 10^−8 M 1,25-(OH)2D3, varying concentrations of propagermanium) | inhibition of the effect of MIP-1α on osteoclast formation ([1]; highest dose of propagermanium, compared with 20 ng/ml anti-human MIP-1α antibody) | reduction of the number of osteoclasts formed [2] | increase in the number of osteoclasts formed over untreated marrow [1] |
| --- | --- | --- | --- | --- | --- | --- | --- | --- |
| 3-oxygermylpropionic acid polymer [Propagermanium] | suppress | inhibit | did not appear to interact directly | dose-dependent reduction | no effect | comparable to that of the anti-human MIP-1α antibody | greater than a factor of four | – |
| C=C1/C(=C\C=C2/CCC[C@]3(C)[C@@H]([C@H](C)CCCC(C)(C)O)CC[C@@H]23)C[C@@H](O)C[C@@H]1O [vitamin D, 1,25-(OH)2D3] | – | – | – | – | – | – | – | greater than two-fold increase |
| B1 | – | – | – | – | – | – | – | greater than two-fold increase |
